Test results from patent US20150080461A1, “Composition Having Antiviral Activity against Flavivirus” (University Malaya, priority 2012, published 2015).
Converted amounts (≈) assume the structure as drawn.

Experiments:
[1] = MTT cytotoxicity assay on Vero cells; assay type: cell-based; conditions: African green monkey, read-out: CC50, cytotoxicity effect against Vero cells
Method: C6/36 mosquito cell line derived from Aedes albopictus and Vero cell line were used. Both cell lines were maintained and propagated in Eagle's Minimum Essential Medium (EMEM) containing 10% fetal bovine serum. Cultured C6/36 and Vero cells were incubated at 28° C. and 37° C., respectively in 5% CO2 humidified chamber. At the time of virus propagation, serum concentration was reduced to 2%. Dengue virus type-2 (DENV-2) New Guinea C strain (NGC) was propagated using C6/36 cell line and harvested after CPE presentation on day seven post infection. After titration, viral stock was stored at -70° C. MTT (Dimethyl thiazolyl diphenyl tetrazolium salt) assay was performed to determine cytotoxicity of quercetin on Vero cells.

DENV-2 (NGC strain) [2] = experiment: Post-adsorption antiviral activity against intracellular replication of DENV-2 (FFURA, qRT-PCR); assay type: cell-based, Dengue virus type-2
Method: Post-adsorption antiviral activity of quercetin against intracellular replication of DENV-2 was performed by inoculating 200 FFU of virus to each well containing monolayer of Vero cells. After adsorption of virus to the cells for one hour at 37° C., the cells were washed with PBS to remove the unadsorped viruses. Then, different concentrations of quercetin were added to the cells followed by four days incubation at 37° C. Viral foci formed were counted and DENV RNA copy number to indicate inhibition of virus replication was quantified using quantitative RT-PCR.
(§1) In general, antiviral activity of quercein was evaluated by measuring the reduction in number of viral foci. Confluent Vero cell monolayers prepared in 24 wells cell culture microplates were used. Then the infected cells treated using the different treatment regime was overlaid with 1.5% of carboxy methyl cellulose (CMC) (Sigma-Aldrich, St. Louis, Mo., USA) containing EMEM. Viral foci were visualized using peroxidase-based foci staining assay four days post infection. The number of DENV-2 foci formed was counted under a stereomicroscope and the virus titer was expressed as Foci-Forming-Unit (FFU). The percentage of viral foci reduction (RF %) compared to untreated controls was calculated as follows: […]
(§2) where, C is the mean of the number of foci for negative control well (without compound) and T is the mean of the number of foci in treated wells.
(§3) Reduction in the number of viral foci was further verified using quantitative real time polymerase chain reaction (qRT-PCR) amplification.
(§4) Quantitative RT-PCR was performed to determine the effect of the compound on DENV replication by quantifying DENV-2 genomic RNA copy number. Briefly, intracellular and extracellular DENV-2 RNAs were harvested from the DENV-infected Vero cells. Viral RNA was extracted using two types of RNA extraction kits (QlAamp Viral RNA mini kit and RNeasy mini kit) (Qiagen, Hilden, Germany). Quantitative RT-PCR assay was performed by adding 1 µl of extracted DENV RNA to the SensiMix SYBR green reagent (Quantace, Watford, United Kingdom) which contained 7.4 μl ddH2O, 10 μl 2× SensiMix One-Step, 0.4 μl 50× SYBR Green solution, 10 units of RNAse Inhibitor, 50 pmol of forward (DNF) and also reverse (D2R) primers. All samples were assayed in triplicate. Amplification was performed using the DNA Engine Opticon system (MJ Research/Bio-Rad, Hercules, Calif.) with the following cycling conditions: reverse transcription at 50° C. for 30 min, initial denaturation at 95° C. for 10 min, followed by 45 cycles of 95° C. for 15 sec, 59° C. for 30 sec and 72° C. for 30 sec. […] For absolute quantitation of the viral RNA, a standard curve was established with a serially diluted RNA extracted from DENV-2 stock with a known titer.

DENV-2 (NGC strain) [3] = experiment: Continuous treatment antiviral activity against DENV-2 (FFURA, qRT-PCR); assay type: cell-based, Dengue virus type-2
Method: In separate experiment, to determine the antiviral activities of quercetin when used continuously, different concentrations of quercetin were added to the Vero cell monolayer five hours before virus infection. After five hours of pre-infection treatment, the cells were washed twice with sterile PBS and then 200 FFU of DENV-2 was inoculated to the cells and incubated at 37° C. for one hour. Infected cells were continuously incubated with the respective concentration of quercetin for four days post infection. Viral foci formed were counted and DENV RNA copy number to indicate inhibition of virus replication was quantified using quantitative RT-PCR.
as §1, §2, §3
as §4, with “triplicate.” for “triplicate. Amplification was performed using the DNA Engine Opticon system (MJ Research/Bio-Rad, Hercules, Calif.) with the following cycling conditions: reverse transcription at 50° C. for 30 min, initial denaturation at 95° C. for 10 min, followed by 45 cycles of 95° C. for 15 sec, 59° C. for 30 sec and 72° C. for 30 sec.”

DENV-2 (NGC strain) [4] = experiment: Anti-adsorption activity against DENV-2 (FFURA, qRT-PCR); assay type: cell-based, Dengue virus type-2; conditions: added to cells simultaneously during infection, FFURA and qRT-PCR
Method: In another experiment, Vero cells at ˜80% confluency were infected with 200 FFU of DENV-2 in the presence or absence of different concentrations of quercetin. The microplate was kept at 37° C. for one hour for virus adsorption. Then the cells were washed twice using sterile PBS and incubated for two hours at 37° C. Cells were then incubated for 4 days and foci formed was counted and DENV RNA copy number to indicate inhibition of virus adsorption was quantified using quantitative RT-PCR.
(§5) In general, antiviral activity of quercein was evaluated by measuring the reduction in number of viral foci. Confluent Vero cell monolayers prepared in 24 wells cell culture microplates were used. […] The number of DENV-2 foci formed was counted under a stereomicroscope and the virus titer was expressed as Foci-Forming-Unit (FFU). The percentage of viral foci reduction (RF %) compared to untreated controls was calculated as follows: […]
as §3
(§6) Quantitative RT-PCR was performed to determine the effect of the compound on DENV replication by quantifying DENV-2 genomic RNA copy number. […] For absolute quantitation of the viral RNA, a standard curve was established with a serially diluted RNA extracted from DENV-2 stock with a known titer.

DENV-2 (NGC strain) [5] = experiment: Direct virucidal effect against DENV-2 (FFURA, qRT-PCR); assay type: cell-based, Dengue virus type-2
Method: Direct virucidal effect of quercetin was investigated by incubating DENV-2 suspension containing 200 FFU with an equal volume of the different concentrations of quercetin for two hours at 37° C. Then, Vero cells were infected with the treated viral suspension in triplicates. At one hour adsorption at 37° C., cells were washed twice with PBS in order to remove unadsorbed viruses. The microplate was incubated at 37° C. for four days. Viral foci formed were counted and DENV RNA copy number to indicate direct virucidal effects was quantified using quantitative RT-PCR.
as §5, with “foci.” for “foci. Confluent Vero cell monolayers prepared in 24 wells cell culture microplates were used.”
as §3, §6

O=c1c(O)c(-c2ccc(O)c(O)c2)oc2cc(O)cc(O)c12 [quercetin, 2-(3,4-dihydroxyphenyl)-3,5,7-trihydroxy-4H-1-benzopyran-4-one]
CC50 [1]: 252.6 ± 0.17 µg/mL (≈ 836 µM)
decrease of DENV-2 specific RNA production (DENV-2 (NGC strain) [2]; 50 μg/mL quercetin, post-adsorption, qRT-PCR, vs non-treated infected cells): more than 67%±1
appearance of viral foci in treated cells (DENV-2 (NGC strain) [2]; 50 μg/ml quercetin, foci staining, vs untreated dengue infected cells): small, less intensely stained and more diffused
IC50 (DENV-2 (NGC strain) [2]; Dengue virus, DENV2, added post viral adsorption, Vero cells, FFURA): 35.7 µg/mL (≈ 118 µM)
SI value (DENV-2 (NGC strain) [2]; post-adsorption assay): 7.07
decrease of the number of DENV-2 foci (DENV-2 (NGC strain) [3]; 50 μg/mL quercetin, continuous treatment of Vero cells, vs non-treated cells): 70%±1.5
IC50 (DENV-2 (NGC strain) [3]; Dengue virus, DENV2, continuous treatment from 5 hours before infection up to 4 days post-infection, Vero cells, FFURA, read-out: IC50, anti-dengue activity): 28.9 µg/mL (≈ 95.6 µM)
SI value (DENV-2 (NGC strain) [3]; continuous treatment): 8.74
decrease of DENV-2 RNA production (DENV-2 (NGC strain) [3]; continuous treatment, qRT-PCR): more than 75.7%±1.57
anti-adsorption activity against DENV-2 (DENV-2 (NGC strain) [4]): ~5%
decrease in copy number of DENV-2 RNA following direct treatment (DENV-2 (NGC strain) [5]; different concentrations of compound, qRT-PCR): no significant decrease
direct virucidal activity against DENV-2 (DENV-2 (NGC strain) [5]; virus incubated with compound two hours at 37° C., foci): no significant direct virucidal activity
